These results are taken from paper PMC10581193 (Microbiology Spectrum, 2023).

Values after ≈ are worked out from the molar mass of the structure shown.

The test deals with M. tuberculosis H37Ra. Nature of the test: microbe, parasite or virus in culture. Type of test: cell-based, Mycobacterium tuberculosis. Particulars: for MIC: Mycobacterium tuberculosis, H37RA, read-out: MIC against H37Ra.

In the case of `COc1ccc(CN2CCOc3c(C(=O)NCC(F)(F)F)cc(C4CC4)cc32)cc1F` [B24, 6-cyclopropyl-4-(3-fluoro-4-methoxybenzyl)-N-(2,2,2-trifluoroethyl)-3,4-dihydro-2H-benzo[b][1,4]oxazine-8-carboxamide], the MIC was more than 25 µg/mL. With `Cc1cc(C(=O)NC2CC2)c2c(c1)N(Cc1nc(C)c(C)nc1C)CCO2` [B14, N-cyclopropyl-6-methyl-4-((3,5,6-trimethylpyrazin-2-yl)methyl)-3,4-dihydro-2H-benzo[b][1,4]oxazine-8-carboxamide], the MIC amounted to 50 µg/mL (≈ 136 µM). Consider `Cc1cc(C(=O)NCCO)c2c(c1)N(Cc1nc(C)c(C)nc1C)CCO2` [B13, N-(2-hydroxyethyl)-6-methyl-4-((3,5,6-trimethylpyrazin-2-yl)methyl)-3,4-dihydro-2H-benzo[b][1,4]oxazine-8-carboxamide], for which the “MIC against H37Ra” value is given as not below 100 and the MIC was more than 100 µg/mL. On to `Cc1nc(C)c(CN2CCOc3c(C(=O)NCC(C)(F)F)cc(C4CC4)cc32)nc1C` [B29, 6-cyclopropyl-N-(2,2-difluoropropyl)-4-((3,5,6-trimethylpyrazin-2-yl)methyl)-3,4-dihydro-2H-benzo[b][1,4]oxazine-8-carboxamide], for which the MIC is more than 25 µg/mL. Still for that read-out and setting: next, `Cc1nc(C)c(CN2CCOc3c(C(=O)N[C@H](C)C(F)(F)F)cc(C4CC4)cc32)nc1C` [B27, (R)-6-cyclopropyl-N-(1,1,1-trifluoropropan-2-yl)-4-((3,5,6-trimethylpyrazin-2-yl)methyl)-3,4-dihydro-2H-benzo[b][1,4]oxazine-8-carboxamide]: more than 25 µg/mL; `COc1ncnc(Cn2ccc3c(C(=O)NCC(F)F)cc(C)cc32)c1C` [A9, N-(2,2-difluoroethyl)-1-((6-methoxy-5-methylpyrimidin-4-yl)methyl)-6-methyl-1H-indole-4-carboxamide]: 0.18 µg/mL (≈ 0.481 µM); `Cc1nc(C)c(CN2CCOc3c(C(=O)NCC(F)(F)CO)cc(C4CC4)cc32)nc1C` [B30, 6-cyclopropyl-N-(2,2-difluoro-3-hydroxypropyl)-4-((3,5,6-trimethylpyrazin-2-yl)methyl)-3,4-dihydro-2H-benzo[b][1,4]oxazine-8-carboxamide]: more than 25 µg/mL. Same read-out and setting: next, `COc1ccc(F)c(F)c1Cn1ccc2c(C(=O)NCC(F)F)cc(Br)cc21` [A2, 6-bromo-1-(2,3-difluoro-6-methoxybenzyl)-N-(2,2-difluoroethyl)-1H-indole-4-carboxamide]: more than 6.25 µg/mL; `COc1ccc(F)c(F)c1Cn1ccc2c(C(=O)NCCF)cc(C)cc21` [A6]: more than 6.25 µg/mL. Same read-out and setting: the figure for `Cc1nc(C)c(CN2CCOc3c(C(=O)NCC(F)F)cc(C4CC4)cc32)nc1C` [B17, 6-cyclopropyl-N-(2,2-difluoroethyl)-4-((3,5,6-trimethylpyrazin-2-yl)methyl)-3,4-dihydro-2H-benzo[b][1,4]oxazine-8-carboxamide] is 0.6 µg/mL (≈ 1.44 µM).

Turning to `Cc1nc(C)c(CN2CCOc3c(C(=O)NCC(F)F)cc(Br)cc32)nc1C` [B2], the “MIC against H37Ra” value is listed as 0.39 and the MIC came to 0.39 µg/mL (≈ 0.857 µM).

Take `COc1c(CN2CCOc3c(C(=O)NCCO)cc(Br)cc32)ccc(F)c1F` [B10, 6-bromo-4-(3,4-difluoro-2-methoxybenzyl)-N-(2-hydroxyethyl)-3,4-dihydro-2H-benzo[b][1,4]oxazine-8-carboxamide]: the MIC was more than 100 µg/mL. Still for that read-out and setting: the figure for `Cc1cc(C(=O)NC2CCCCC2)c2c(c1)N(Cc1nc(C)c(C)nc1C)CCO2` [B16, N-cyclohexyl-6-methyl-4-((3,5,6-trimethylpyrazin-2-yl)methyl)-3,4-dihydro-2H-benzo[b][1,4]oxazine-8-carboxamide] is less than 0.78 µg/mL. With `COc1ncnc(Cn2ccc3c(C(=O)NCC(F)F)cc(Br)cc32)c1C` [A4, 6-bromo-N-(2,2-difluoroethyl)-1-((6-methoxy-5-methylpyrimidin-4-yl)methyl)-1H-indole-4-carboxamide], the “MIC against H37Ra” value was determined as 0.5 and the MIC was found to be 0.5 µg/mL (≈ 1.14 µM). As to `Cc1ccc(CN2CCOc3c(C(=O)NCC(F)(F)F)cc(C4CC4)cc32)cc1` [B21, 6-cyclopropyl-4-(4-methylbenzyl)-N-(2,2,2-trifluoroethyl)-3,4-dihydro-2H-benzo[b][1,4]oxazine-8-carboxamide], the MIC was more than 25 µg/mL. On the same count and under the same terms, the figure for `Cc1nc(C)c(CN2CCOc3c(C(=O)NCCC(F)(F)F)cc(C4CC4)cc32)nc1C` [B28, 6-cyclopropyl-N-(3,3,3-trifluoropropyl)-4-((3,5,6-trimethylpyrazin-2-yl)methyl)-3,4-dihydro-2H-benzo[b][1,4]oxazine-8-carboxamide] is more than 25 µg/mL. On the same count and under the same terms, the figure for `COc1ncc(C(F)(F)F)cc1Cn1ccc2c(C(=O)NCC(F)F)cc(Br)cc21` [A5, 6-bromo-N-(2,2-difluoroethyl)-1-((2-methoxy-5-(trifluoromethyl)pyridin-3-yl)methyl)-1H-indole-4-carboxamide] is more than 6.25 µg/mL.

With “6-bromo-N-(2-hydroxyethyl)-4-((2-methoxy-5-(trifluoromethyl)pyridin-3-yl)methyl)-3,4-dihydro-2H-benzo[2, 4]oxazine-8-carboxamide [B4]”, the “MIC against H37Ra” value stood at 25 µg/mL. For the molecule `Cc1nc(C)c(CN2CCOc3c(C(=O)NCCO)cc(C4CC4)cc32)nc1C` [B19, 6-cyclopropyl-N-(2-hydroxyethyl)-4-((3,5,6-trimethylpyrazin-2-yl)methyl)-3,4-dihydro-2H-benzo[b][1,4]oxazine-8-carboxamide], the MIC is more than 100 µg/mL. On the same count and under the same terms, next, `Cc1cc(C(=O)NCC(F)F)c2c(c1)N(Cc1nc(C)c(C)nc1C)CCO2` [B11, N-(2,2-difluoroethyl)-6-methyl-4-((3,5,6-trimethylpyrazin-2-yl)methyl)-3,4-dihydro-2H-benzo[b][1,4]oxazine-8-carboxamide]: 0.18 µg/mL (≈ 0.461 µM).

Turning to `COc1c(CN2CCOc3c(C(=O)NCC(F)F)cc(Br)cc32)ccc(F)c1F` [B9, 6-bromo-4-(3,4-difluoro-2-methoxybenzyl)-N-(2,2-difluoroethyl)-3,4-dihydro-2H-benzo[b][1,4]oxazine-8-carboxamide], the MIC was more than 100 µg/mL. The same measure, in the same setting: the figure for `COC(=O)c1cccc(CN2CCOc3c(C(=O)NCC(F)(F)F)cc(C4CC4)cc32)c1` [B25, methyl 3-((6-cyclopropyl-8-((2,2,2-trifluoroethyl)carbamoyl)-2,3-dihydro-4H-benzo[b][1,4]oxazin-4-yl)methyl)benzoate] is more than 25 µg/mL; for `Cc1cc(C(=O)NC2CCCC2)c2c(c1)N(Cc1nc(C)c(C)nc1C)CCO2` [B15, N-cyclopentyl-6-methyl-4-((3,5,6-trimethylpyrazin-2-yl)methyl)-3,4-dihydro-2H-benzo[b][1,4]oxazine-8-carboxamide] it is 1.56 µg/mL (≈ 3.95 µM). In the case of `Cc1nc(C)c(CN2CCOc3c(C(=O)N(C)CC(F)(F)F)cc(C4CC4)cc32)nc1C` [B34, 6-cyclopropyl-N-methyl-n-(2,2,2-trifluoroethyl)-4-((3,5,6-trimethylpyrazin-2-yl)methyl)-3,4-dihydro-2H-benzo[b][1,4]oxazine-8-carboxamide], the MIC is more than 25 µg/mL.

On to `COc1ncc(C(F)(F)F)cc1Cn1ccc2c(C(=O)NCC(F)F)cc(C)cc21` [A10, N-(2,2-difluoroethyl)-1-((2-methoxy-5-(trifluoromethyl)pyridin-3-yl)methyl)-6-methyl-1H-indole-4-carboxamide], for which the MIC is more than 6.25 µg/mL. Still for that read-out and setting: the figure for `Cc1nc(C)c(CN2CCOc3c(C(=O)N[C@@H](C)C(F)(F)F)cc(C4CC4)cc32)nc1C` [B26, (S)-6-cyclopropyl-N-(1,1,1-trifluoropropan-2-yl)-4-((3,5,6-trimethylpyrazin-2-yl)methyl)-3,4-dihydro-2H-benzo[b][1,4]oxazine-8-carboxamide] is more than 25 µg/mL. For `Cc1nc(C)c(CN2CCOc3c(C(=O)NCCCC(F)(F)F)cc(C4CC4)cc32)nc1C` [B31, 6-cyclopropyl-N-(4,4,4-trifluorobutyl)-4-((3,5,6-trimethylpyrazin-2-yl)methyl)-3,4-dihydro-2H-benzo[b][1,4]oxazine-8-carboxamide], the MIC was more than 25 µg/mL. The same measure, in the same setting: next, `Cc1cc(C)cc(CN2CCOc3c(C(=O)NCC(F)(F)F)cc(C4CC4)cc32)c1` [B22, 6-cyclopropyl-4-(3,5-dimethylbenzyl)-N-(2,2,2-trifluoroethyl)-3,4-dihydro-2H-benzo[b][1,4]oxazine-8-carboxamide]: more than 25 µg/mL.

For the molecule `Cc1cc(C(=O)NCC(F)(F)F)c2c(c1)N(Cc1nc(C)c(C)nc1C)CCO2` [B12, 6-methyl-N-(2,2,2-trifluoroethyl)-4-((3,5,6-trimethylpyrazin-2-yl)methyl)-3,4-dihydro-2H-benzo[b][1,4]oxazine-8-carboxamide], the “MIC against H37Ra” value is listed as not below 100 and the MIC is 100 µg/mL (≈ 245 µM). Consider `Cc1nc(C)c(CN2CCOc3c(C(=O)NC4CCC(F)(F)CC4)cc(C4CC4)cc32)nc1C` [B32, 6-cyclopropyl-N-(4,4-difluorocyclohexyl)-4-((3,5,6-trimethylpyrazin-2-yl)methyl)-3,4-dihydro-2H-benzo[b][1,4]oxazine-8-carboxamide], for which the MIC is more than 25 µg/mL. In the case of “6-bromo-N-(2-fluoroethyl)−4-((3,5,6-trimethylpyrazin-2-yl)methyl)−3,4-dihydro-2H-benzo[2, 4]oxazine-8-carboxamide [B1]”, the “MIC against H37Ra” value worked out at 6.25 µg/mL. As for `COc1cc(CN2CCOc3c(C(=O)NCC(F)(F)F)cc(C4CC4)cc32)cc(OC)c1` [B23, 6-cyclopropyl-4-(3,5-dimethoxybenzyl)-N-(2,2,2-trifluoroethyl)-3,4-dihydro-2H-benzo[b][1,4]oxazine-8-carboxamide], the MIC is more than 25 µg/mL. Same read-out and setting: the figure for `COc1ccc(F)c(F)c1CN1CCOc2c(C(=O)NCCO)cc(Br)cc21` [B8, 6-bromo-4-(2,3-difluoro-6-methoxybenzyl)-N-(2-hydroxyethyl)-3,4-dihydro-2H-benzo[b][1,4]oxazine-8-carboxamide] is more than 100 µg/mL; for `COc1ccc(F)c(F)c1Cn1ccc2c(C(=O)NCCF)cc(Br)cc21` [A1] it is more than 6.25 µg/mL. On the same count and under the same terms, next, `Cc1cc(C(=O)NCC(F)F)c2ccn(Cc3nc(C)c(C)nc3C)c2c1` [A8, N-(2,2-difluoroethyl)-6-methyl-1-((3,5,6-trimethylpyrazin-2-yl)methyl)-1H-indole-4-carboxamide]: more than 6.25 µg/mL.
